Measurements from US9693556B2, “Herbicidal pyridazinone derivatives” (SYNGENTA LIMITED, priority 2011, dated 2017).

Legend:
Assay type in all cases: in vivo
[1] = test system: Solanum nigrum (SOLNI); test: Post-emergence herbicidal glasshouse test on Solanum nigrum; conditions: post-emergence, 1000 g/h, evaluated after 13 days
Summary of the method: (§1)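 Plants sprayed 1 day (pre-emergence) or 8 days (post-emergence) after sowing with compound at 1000 g/h in acetone/water 50:50 with 0.5% Tween 20; glasshouse 24/16° C, 14 h light, 65% humidity. Damage assessed after 13 days, scored 1–5 (5 = 80-100%, 1 = 0-19%).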

[2] = test system: Setaria faberi (SETFA); test: Pre-emergence herbicidal glasshouse test on Setaria faberi; conditions: pre-emergence, 1000 g/h, evaluated after 13 days
Summary of the method: as §1

[3] = test system: Setaria faberi (SETFA); test: Post-emergence herbicidal glasshouse test on Setaria faberi; conditions: post-emergence, 1000 g/h, evaluated after 13 days
Summary of the method: as §1

[4] = test system: Ipomoea hederacea (IPOHE); test: Post-emergence herbicidal glasshouse test on Ipomoea hederacea; conditions: post-emergence, 1000 g/h, evaluated after 13 days
Summary of the method: as §1

[5] = test system: Ipomoea hederacea (IPOHE); test: Pre-emergence herbicidal glasshouse test on Ipomoea hederacea; conditions: pre-emergence, 1000 g/h, evaluated after 13 days
Summary of the method: as §1

[6] = test system: Alopecurus myosuroides (ALOMY); test: Pre-emergence herbicidal glasshouse test on Alopecurus myosuroides; conditions: pre-emergence, 1000 g/h, evaluated after 13 days
Summary of the method: as §1

[7] = test system: Solanum nigrum (SOLNI); test: Pre-emergence herbicidal glasshouse test on Solanum nigrum; conditions: pre-emergence, 1000 g/h, evaluated after 13 days
Summary of the method: as §1

[8] = test system: Echinochloa crus-galli (ECHCG); test: Post-emergence herbicidal glasshouse test on Echinochloa crus-galli; conditions: post-emergence, 1000 g/h, evaluated after 13 days
Summary of the method: as §1

[9] = test system: Echinochloa crus-galli (ECHCG); test: Pre-emergence herbicidal glasshouse test on Echinochloa crus-galli; conditions: pre-emergence, 1000 g/h, evaluated after 13 days
Summary of the method: as §1

[10] = test system: Amaranthus retoflexus (AMARE); test: Post-emergence herbicidal glasshouse test on Amaranthus retoflexus; conditions: post-emergence, 1000 g/h, evaluated after 13 days
Summary of the method: as §1

[11] = test system: Amaranthus retoflexus (AMARE); test: Pre-emergence herbicidal glasshouse test on Amaranthus retoflexus; conditions: pre-emergence, 1000 g/h, evaluated after 13 days
Summary of the method: as §1

[12] = test system: Alopecurus myosuroides (ALOMY); test: Post-emergence herbicidal glasshouse test on Alopecurus myosuroides; conditions: post-emergence, 1000 g/h, evaluated after 13 days
Summary of the method: as §1

Structure (SMILES)	POST Application SOLNI herbicidal damage (five point scale) [1]	PRE Application SETFA herbicidal damage (five point scale) [2]	POST Application SETFA herbicidal damage (five point scale) [3]	POST Application IPOHE herbicidal damage (five point scale) [4]	PRE Application IPOHE herbicidal damage (five point scale) [5]	PRE Application ALOMY herbicidal damage (five point scale) [6]	PRE Application SOLNI herbicidal damage (five point scale) [7]	POST Application ECHCG herbicidal damage (five point scale) [8]	PRE Application ECHCG herbicidal damage (five point scale) [9]	POST Application AMARE herbicidal damage (five point scale) [10]	PRE Application AMARE herbicidal damage (five point scale) [11]	POST Application ALOMY herbicidal damage (five point scale) [12]	other results
COc1nc(C(F)(F)F)ccc1-c1cnn(C)c(=O)c1O [Compound 4.005]	3 (3=40-59% damage)	1 (1=0-19% damage)	1 (1=0-19% damage)	2 (2=20-39% damage)	1 (1=0-19% damage)	1 (1=0-19% damage)	1 (1=0-19% damage)	1 (1=0-19% damage)	1 (1=0-19% damage)	5 (5=80-100% damage)	5 (5=80-100% damage)	1 (1=0-19% damage)	
COc1ccc(Cn2ncc(-c3ccc(Cl)cc3S(C)(=O)=O)c(O)c2=O)cc1 [Compound 2.008]	5 (5=80-100% damage)	2 (2=20-39% damage)	5 (5=80-100% damage)	5 (5=80-100% damage)	3 (3=40-59% damage)	4 (4=60-79% damage)	5 (5=80-100% damage)	5 (5=80-100% damage)	5 (5=80-100% damage)	5 (5=80-100% damage)	5 (5=80-100% damage)	3 (3=40-59% damage)	
Cn1ncc(-c2cccn(-c3cccc(C(F)(F)F)c3)c2=O)c(O)c1=O [Compound 1.152]													herbicidal damage, POST Application SOLNI ([1]; five point scale): 1 (1=0-19% damage); herbicidal damage, PRE Application SETFA ([2]; five point scale): 5 (5=80-100% damage); herbicidal damage, POST Application SETFA ([3]; five point scale): 1 (1=0-19% damage); herbicidal damage, POST Application IPOHE ([4]; five point scale): 2 (2=20-39% damage); herbicidal damage, PRE Application IPOHE ([5]; five point scale): 1 (1=0-19% damage); herbicidal damage, PRE Application ALOMY ([6]; five point scale): 4 (4=60-79% damage); herbicidal damage, PRE Application SOLNI ([7]; five point scale): 2 (2=20-39% damage); herbicidal damage, POST Application ECHCG ([8]; five point scale): 1 (1=0-19% damage); herbicidal damage, PRE Application ECHCG ([9]; five point scale): 2 (2=20-39% damage); herbicidal damage, POST Application AMARE ([10]; five point scale): 1 (1=0-19% damage); herbicidal damage, PRE Application AMARE ([11]; five point scale): 2 (2=20-39% damage); herbicidal damage, POST Application ALOMY ([12]; five point scale): 1 (1=0-19% damage)
Cn1ncc(-c2ccccc2C#N)c(O)c1=O [Compound 1.022]	3 (3=40-59% damage)	1 (1=0-19% damage)	1 (1=0-19% damage)	1 (1=0-19% damage)	1 (1=0-19% damage)	1 (1=0-19% damage)	1 (1=0-19% damage)	1 (1=0-19% damage)	1 (1=0-19% damage)	2 (2=20-39% damage)	1 (1=0-19% damage)	1 (1=0-19% damage)	
Cc1ccc(-n2cccc(-c3cnn(C)c(=O)c3O)c2=O)cc1 [Compound 9.017]	4 (4=60-79% damage)	1 (1=0-19% damage)	2 (2=20-39% damage)	2 (2=20-39% damage)	2 (2=20-39% damage)	2 (2=20-39% damage)	1 (1=0-19% damage)	5 (5=80-100% damage)	1 (1=0-19% damage)	3 (3=40-59% damage)	1 (1=0-19% damage)	2 (2=20-39% damage)	
O=c1c(O)c(-c2ccc(C(F)(F)F)cc2C(F)(F)F)cnn1C(F)F [Compound 1.006]	5 (5=80-100% damage)	1 (1=0-19% damage)	1 (1=0-19% damage)	5 (5=80-100% damage)	3 (3=40-59% damage)	2 (2=20-39% damage)	3 (3=40-59% damage)	1 (1=0-19% damage)	2 (2=20-39% damage)	5 (5=80-100% damage)	5 (5=80-100% damage)	1 (1=0-19% damage)	
CCn1ncc(-c2c(Cl)ccc(Cl)c2Cl)c(O)c1=O [Compound 1.010]	4 (4=60-79% damage)	1 (1=0-19% damage)	1 (1=0-19% damage)	4 (4=60-79% damage)	1 (1=0-19% damage)	1 (1=0-19% damage)	1 (1=0-19% damage)	1 (1=0-19% damage)	1 (1=0-19% damage)	2 (2=20-39% damage)	1 (1=0-19% damage)	1 (1=0-19% damage)	
Cn1ncc(-c2ccc(C(F)(F)F)n(-c3cccc(C(F)(F)F)n3)c2=O)c(O)c1=O [Compound 9.001]	4 (4=60-79% damage)	1 (1=0-19% damage)	4 (4=60-79% damage)	1 (1=0-19% damage)	1 (1=0-19% damage)	3 (3=40-59% damage)	1 (1=0-19% damage)	4 (4=60-79% damage)	2 (2=20-39% damage)	3 (3=40-59% damage)	2 (2=20-39% damage)	4 (4=60-79% damage)	
Cn1ncc(-c2ccc(C(F)(F)F)nc2Oc2ccccc2)c(O)c1=O [Compound 4.008]	5 (5=80-100% damage)	1 (1=0-19% damage)	2 (2=20-39% damage)	4 (4=60-79% damage)	1 (1=0-19% damage)	1 (1=0-19% damage)	1 (1=0-19% damage)	2 (2=20-39% damage)	1 (1=0-19% damage)	5 (5=80-100% damage)	5 (5=80-100% damage)	1 (1=0-19% damage)	
